Measurements taken from patent US8871205B2, “Methods and compositions for the treatment of immune disorders” (The University of North Carolina at Chapel Hill, priority 2009, dated 2014).
Entries after “also recorded” stand apart in the source; their conditions may differ.

Experiments:
peritoneal macrophages = test: TLR agonist-induced cytokine production (ELISA) in peritoneal macrophages pretreated with Rac1 inhibitor; type: cell-based, mouse
Description: Immunoblot analysis of NF-κB and mitogen-activated protein kinase (MAPK) signaling molecules was performed with WT and Plxna4^−/− peritoneal macrophages left untreated (0) or treated for 15, 30 or 60 min with 1 μg/ml ultrapure LPS (FIG. 3A). FIG. 3B and FIG. 3C show chromatin immunoprecipitation (ChIP) assays of the binding of p65 or c-Jun at the promoter regions of Tnfa and Il6 gene in WT and Plxna4^−/− peritoneal macrophages left untreated or treated with 10 μg/ml poly(I:C), 1 μg/ml ultrapure LPS (B), 5 μg/ml Pam3Cys or 4 μg/ml CpG (C) for 1 h. Cells were left untreated (0) or treated for 15 or 30 min with 1 μg/ml ultrapure LPS. Rac1, Cdc42 and RhoA pull-down analysis were performed as described in the Examples section. Total Rac1, Cdc42 and RhoA in cell lysate were used as controls. […] Protein levels of TNF-α and IL-6 were measured by ELISA. The results shown are representative of three independent experiments and are expressed as mean±s.d. * P<0.05 compared to WT peritoneal macrophages without NSC23766 pretreatment.
Total peritoneal cells were harvested from the peritoneal cavities of naïve WT or Plxna4^−/− mice with two 10 ml cold sterile PBS wash. […] The remaining cells were thoroughly washed with PBS and counted in a hemocytometer. Cytospins were prepared and stained with Diff-Quik solutions, and the number of peritoneal macrophages was determined. […]
(§1) Cytokines generated by in vitro cultured peritoneal macrophages were quantified using the ELISA Set for mouse TNF-α or IL-6 (BD Biosciences) and mouse IFN-β ELISA Kit (PBL InterferonSource). For the in vivo experiments, concentrations of TNF-α, IL-1β, IL-6, IL-12p70, CCL2 and CCL3 were measured in cell-free peritoneal lavage fluid, serum, and lung homogenate using a Customized Mouse Cytokine 6-plex Panel (BioLegend) and a Luminex Bio-Plex 200 system (Bio-Rad Laboratories). […]

[1] = tested on: WT or Plxna4−/− peritoneal macrophages; test: TNF-α and IL-6 production (RT-PCR, ELISA) in peritoneal macrophages stimulated with Sema3A-Fc or Sema6A-Fc in the absence or presence of LPS; type: cell-based, mouse
Description: Messenger RNA (FIG. 7A) or protein (FIG. 7B) levels of TNF-α and IL-6 were measured by RT-PCR and ELISA, respectively. The IgG Fc fragment (100 μg/ml) was used as a negative control. WT and Plxna4^−/− mice (n=7˜9 per group) were pretreated with either Sema3A-Fc or IgG Fc control proteins at a dosage of 25 μg per kg body weight 1 h prior to CLP procedure (FIG. 7C). Survival rate was monitored for 5 days. τP<0.05 compared with WT mice pretreated with Sema3A-Fc. WT mice (n=4 per group) were pretreated with either Sema3A-Fc or IgG Fc control proteins, followed by CLP surgery (FIG. 7D). Inflammatory cytokines in peritoneal lavage collected 4 h after CLP were determined by ELISA. * P<0.05 compared to peritoneal lavage from WT mice pretreated with Sema3A-Fc (FIG. 7E). […] WT and Plxna4^−/− mice (n=4 per group experiment) were pretreated with either Sema3A-Fc or IgG Fc control proteins at a dosage of 25 ug/kg body weight 1 hour before CLP procedure. Inflammatory cytokines in peritoneal lavage collected 4 h after CLP were determined by ELISA. *P<0.05 compared with peritoneal lavage from WT mice pretreated with Sema3A-Fc (FIG. 7G).
Total peritoneal cells were harvested from the peritoneal cavities of naïve WT or Plxna4^−/− mice with two 10 ml cold sterile PBS wash. Lavage was pooled for mice in the same group. RBCs were lysed in ammonium chloride buffer (150 mM NH4CL, 10 mM NaHCO3, 1 mM EDTA-tetrasodium). The remaining cells were thoroughly washed with PBS and counted in a hemocytometer. Cytospins were prepared and stained with Diff-Quik solutions, and the number of peritoneal macrophages was determined. […]
as §1

WT and Plxna4−/− mice [2] = test: Inflammatory cytokines in peritoneal lavage after CLP (ELISA); type: in vivo; conditions: 25 μg/kg 1 h prior to CLP, 4 h after CLP, versus IgG Fc-treated controls
Description: (§2) WT and Plxna4^−/− peritoneal macrophages were stimulated with LPS (1 μg/ml) for 4 h in the absence or presence of either Sema3A-Fc or Sema6A-Fc fusion proteins (20 or 100 μg/ml) (FIG. 7A and FIG. 7B). Messenger RNA (FIG. 7A) or protein (FIG. 7B) levels of TNF-α and IL-6 were measured by RT-PCR and ELISA, respectively. The IgG Fc fragment (100 μg/ml) was used as a negative control. WT and Plxna4^−/− mice (n=7˜9 per group) were pretreated with either Sema3A-Fc or IgG Fc control proteins at a dosage of 25 μg per kg body weight 1 h prior to CLP procedure (FIG. 7C). Survival rate was monitored for 5 days. τP<0.05 compared with WT mice pretreated with Sema3A-Fc. […] Inflammatory cytokines in peritoneal lavage collected 4 h after CLP were determined by ELISA. * P<0.05 compared to peritoneal lavage from WT mice pretreated with Sema3A-Fc (FIG. 7E). […] Inflammatory cytokines in peritoneal lavage collected 4 h after CLP were determined by ELISA. *P<0.05 compared with peritoneal lavage from WT mice pretreated with Sema3A-Fc (FIG. 7G).
Cytokines generated by in vitro cultured peritoneal macrophages were quantified using the ELISA Set for mouse TNF-α or IL-6 (BD Biosciences) and mouse IFN-β ELISA Kit (PBL InterferonSource). […]
CLP surgery was performed on mice as previously described with minor modifications (Wen et al., 2008). […] For survival studies, mice subjected to surgery were monitored for 5 days. […]

WT and Plxna4−/− mice [3] = test: Survival after experimental sepsis induced by CLP; type: in vivo; conditions: 25 μg/kg 1 h prior to CLP
Description: as §2
CLP surgery was performed on mice as previously described with minor modifications (Wen et al., 2008). […] For survival studies, mice subjected to surgery were monitored for 5 days. […] Colonies were counted and expressed as CFU/ml. […]
We next assessed if Sema3A engagement of plexin-A4 could synergistically exacerbate CLP-induced septic inflammation. […]

Rac1 = biological target: T1, Rac1 (Mus musculus, UniProt P63001); test: Detection of GTP-bound Rac1 (pull-down) in macrophages; type: cell-based
T1 construct: endogenous in cells; host or cells: primary mouse peritoneal macrophages (WT, Plxna4-/-)
Description: The assays for GTP-bound Rac1, Cdc42 and RhoA were performed as described (Noren et al., 2000). Briefly, peritoneal macrophages were stimulated with 1 μg/ml LPS for various time periods. Cells were lysed and GTP-bound Rac1 and Cdc42 were affinity precipitated using Rac1/Cdc42-binding domain of PAK (PBD) fused with GST. GTP-bound RhoA was affinity precipitated using RhoA-binding domain of rhotekin (RBD) fused with GST. Bound proteins were resolved on a NuPAGE® (SDS PAGE) gel and were transferred onto nitrocellulose membranes. Membranes were immunoblotted with the appropriate primary antibodies against Rac1, Cdc42 or RhoA.
To assess a converging point for TLR and plexin-A4, we assayed for GTP-bound Rac1.

With `CCN(CC)CCCC(C)Nc1nc(C)cc(Nc2ccc3nc(C)cc(N)c3c2)n1` (stereo not drawn) [NSC23766] the cytokine production (peritoneal macrophages; TLR-activated Plxna4−/− macrophages, NSC23766 pretreatment) was “no inhibitory effect”, the IFN-β production (peritoneal macrophages; WT macrophages, Rac1 inhibition) was “not affected” and the “TNF-α and IL-6 production” value (peritoneal macrophages; WT peritoneal macrophages, NSC23766 200 μM pretreatment 1 h, various TLR agonists 4 h, ELISA) was “significantly attenuate”.

For “Sema3A: Recombinant human Sema3A-Fc (1250-S3, R&D); chimeric protein of human IgG1 Fc fragment fused to Sema3A; plexin-A4 ligand”, the “LPS-induced TNF-α and IL-6 production (enhancement in LPS-responsiveness)” value ([1]; Plxna4−/− macrophages) was “completely abolished”, the “LPS-induced TNF-α and IL-6 production” value ([1]; WT peritoneal macrophages, suboptimal LPS, fusion proteins 20 or 100 μg/ml) was “enhanced” and the “TNF-α and IL-6 production” value ([1]; semaphorin alone, absence of LPS, macrophages) was “Neither Sema3A nor Sema6A alone induced; also recorded: failed to induce cytokine production”. The “levels of inflammatory cytokines in peritoneal lavage” value (WT and Plxna4−/− mice [2]) was “significantly higher levels”, the survival rate (WT and Plxna4−/− mice [3]) was “did not affect” and the “Rac1 activation (GTP-bound Rac1)” value (Rac1; Myd88−/− macrophages) was “neither Sema3A nor LPS activated; also recorded: attenuated”. The “Rac1 activation (GTP-bound Rac1)” value (Rac1; Plxna4−/− macrophages) was “not observed”, the “Rac1 activation (GTP-bound Rac1)” value (Rac1; WT macrophages, LPS and Sema3A together) was “enhanced this activation” and the “Rac1 activation (GTP-bound Rac1)” value (Rac1; WT macrophages, single stimulus) was “resulted in Rac1 activation”.
